Converted amounts (≈) assume the structure as drawn. Where only a bound is given, the exact number is not on record here.

Series [1] can be described thus: Pharmacokinetics in rats, intravenous or intraduodenal administration, plasma concentration. As to conditions: 10.0 mg/kg. It is filed as in vivo. As to the method:
Metabolic characteristics of the dipeptide compounds of the present invention was evaluated using rats. Tested compounds dissolved in vehicle was administered intraduodenally or intravenously. After administration, blood was taken and the concentration of residual tested compound in plasma was analyzed. The dosage of the tested compound was described in table 3.

The target in series [2] is T1, Recombinant HIV protease (Human immunodeficiency virus type 1 group M subtype B, UniProt P04585).
T1 construct: Recombinant HIV protease
As to the kind of experiment: HIV protease inhibitory activity (cleavage of synthetic hepta-peptide, HPLC). Type of series: biochemical. Particulars: for inhibition at 0.05 µM / HIV protease inhibitory activity (%): 37° C., 60 min; for inhibition at 5 µM: read-out: HIV protease inhibitory activity (%). The method, then:
Recombinant HIV protease (Biochemistry, 250 (9), 264 (1990)) and synthetic hepta-peptide (H-Ser-Gln-Asn-Tyr-Pro-Ile-Val-OH/trifluoroacetic acid salt) were used for assay of protease activity. Peptide fragment H-Pro-Ile-Val-OH formed by cleavage between -Tyr . . . Pro of said substrate after a reaction in the presence of various concentration of tested compound at 37° C. for 60 min. was determined by reversed phase HPLC and the inhibitory rate was calculated (referred to Japanese laid-open unexamined patent, No. 170722/1993).
The concentration of tested compound represents the final concentration thereof of the reaction mixture.

In series [3] the test system is MT-4 cell line. As to the kind of experiment: Cytotoxicity to non-infected MT-4 cell line, MTT method. Particulars: non-infected MT-4 cells, 5 day culture. Type of series: cell-based. As to the method:
According to a test method which was already reported in publications (H.Nakashima et al., Antimicrob. Agents Chemother.36, 1249-1255 (1992), etc.,), anti-HIV activity was evaluated, by using MT-4 cell line and HTLV-IIIB virus, MT-4 cells (2.5×10^4 well, MOI:001) infected with said HTLV-IIIB virus just before the addition were into 96-well microtiter plate wherein each well contained various concentration of tested compound. At the same time, in order to investigate cytotoxicity of tested compounds to MT-4 cell line, non-infected MT-4 cell line was cultured in the presence of various kinds of tested compound. After 5 day culture at 37° C. in a CO2 incubator, the number of vial cells was counted by MTT method. […]
On the technique in general: Tetrazolium assays rely on reduction of a dye to a coloured formazan, in cell work by metabolically active cells.

In series [4] the test system is HTLV-IIIB virus. As to the kind of experiment: Anti-HIV activity: protection of HTLV-IIIB infected MT-4 cells, MTT method. Type of series: cell-based. As to conditions: MT-4 cells infected with HTLV-IIIB, 5 day culture. The method, then:
The anti-HIV activity of the dipeptide compound of the present invention was evaluated as described below. That is, the inhibitory action of the compound on formation of HIV virus particles which infects T lymphocyte was evaluated by potency to prevent death of T lymphocyte accompanied by said virus infection.
According to a test method which was already reported in publications (H.Nakashima et al., Antimicrob. Agents Chemother.36, 1249-1255 (1992), etc.,), anti-HIV activity was evaluated, by using MT-4 cell line and HTLV-IIIB virus, MT-4 cells (2.5×10^4 well, MOI:001) infected with said HTLV-IIIB virus just before the addition were into 96-well microtiter plate wherein each well contained various concentration of tested compound. At the same time, in order to investigate cytotoxicity of tested compounds to MT-4 cell line, non-infected MT-4 cell line was cultured in the presence of various kinds of tested compound. After 5 day culture at 37° C. in a CO2 incubator, the number of vial cells was counted by MTT method.
Virus whose infectious value was 3.8×10^4 TCID 50/ml was used.

For `Cc1ccccc1CNC(=O)[C@H]1N(C(=O)[C@@H](O)[C@H](Cc2ccccc2)NC(=O)c2cccc(O)c2C)CSC1(C)C` [Compound of example 37, (R)-N-(2-methylbenzyl)-3-[(2S,3S)-3-(3-hydroxy-2-methylbenzoyl)amino-2-hydroxy-4-phenylbutanoyl]-5,5-dimethyl-1,3-thiazolidine-4-carboxamide], the results for the AUC in series [1] (i.d.) and in series [1] (i.v.) were 55 µg/mL/min and 131 µg/mL/min, respectively. The inhibition at 0.05 µM in series [2] (concentration 50 nM (final)) was determined as 95.8%. Further, the inhibition at 5 µM in series [2] was over 99%.
As for `Cc1c(O)cccc1C(=O)N[C@@H](Cc1ccccc1)[C@H](O)C(=O)N1CSC[C@H]1C(=O)NCc1ccccc1Cl` [Compound of example 42, (R)-N-(2-chlorobenzyl)-3-[(2S,3S)-3-(3-hydroxy-2-methylbenzoyl)amino-2-hydroxy-4-phenylbutanoyl]-1,3-thiazolidine-4-carboxamide], the inhibition at 0.05 µM in series [2] (concentration 50 nM (final)) was found to be 51.2%. Further, the inhibition at 5 µM in series [2] was 97.4%.
With `CC(C)(C)NC(=O)[C@@H]1CSCN1C(=O)[C@@H](O)[C@H](Cc1ccccc1)NC(=O)c1cccc(O)c1` [Compound of example 6, (R)-N-tert-butyl-3-[(2S,3S)-2-hydroxy-3-[3-hydroxybenzoyl]amino-4-phenylbutanoyl]-1,3-thiazolidine-4-carboxamide], the inhibition at 5 µM in series [2] came out at 76%.
Same read-out and setting: the figure for `CC(C)(C)NC(=O)[C@@H]1CSCN1C(=O)[C@@H](O)[C@H](Cc1ccccc1)NC(=O)c1ccc(C(=O)O)cc1` [Compound of example 13, (R)-N-tert-butyl-3-[(2S,3S)-2-hydroxy-3-[4-carboxybenzoyl]amino-4-phenylbutanoyl]-1,3-thiazolidine-4-carboxamide] is 70.4%.
Same read-out and setting: as for `CC(C)(C)NC(=O)[C@@H]1CSCN1C(=O)[C@@H](O)[C@H](Cc1ccccc1)NC(=O)c1ccc(O)cc1` [Compound of example 7, (R)-N-tert-butyl-3-[(2S,3S)-2-hydroxy-3-[4-hydroxybenzoyl]amino-4-phenylbutanoyl]-1,3-thiazolidine-4-carboxamide], the figure is 62.2%; as for `Cc1cccc(C(=O)N[C@@H](Cc2ccccc2)[C@H](O)C(=O)N2CSC[C@H]2C(=O)NC(C)(C)C)c1C` [Compound of example 26, (R)-N-tert-butyl-3-[(2S,3S)-2-hydroxy-3-(2,3-dimethylbenzoyl]amino-4-phenylbutanoyl]-1,3-thiazolidine-4-carboxamide], 77.9%.
For the compound `Cc1cccc(C)c1CNC(=O)[C@@H]1CSCN1C(=O)[C@@H](O)[C@H](Cc1ccccc1)NC(=O)c1cccc(O)c1C` [Compound of example 44, (R)-N-(2,6-dimethylbenzyl)-3-[(2S,3S)-3-(3-hydroxy-2-methylbenzoyl)amino-2-hydroxy-4-phenylbutanoyl]-1,3-thiazolidine-4-carboxamide], the inhibition at 0.05 µM in series [2] (concentration 50 nM (final)) came out at 75.2%. The inhibition at 5 µM in series [2] was determined as 97.9%.
The like results for `CCCc1c(O)cccc1C(=O)N[C@@H](Cc1ccccc1)[C@H](O)C(=O)N1CSC[C@H]1C(=O)NC(C)(C)C` [Compound of example 32, (R)-N-tert-butyl-3-[(2S,3S)-2-hydroxy-3-(3-hydroxy-2-propylbenzoyl)amino-4-phenylbutanoyl]-1,3-thiazolidine-4-carboxamide] were, in that order, 17.2% and 92%.
Take `Cc1c(O)cccc1C(=O)N[C@@H](Cc1ccccc1)[C@H](O)C(=O)N1CCC[C@H]1C(=O)NC(C)(C)C` [Compound of example 24, N-tert-butyl-1-[(2S,3S)-2-hydroxy-3-N-[3-hydroxy-2-methylbenzoyl]amino-4-phenylbutanoyl]-L-prolinamide]: in series [3], the “Cytotoxicity CC50” value amounted to 231 µg/mL. The “Anti-HIV activity EC50” value in series [4] turned out to be 1.97 µg/mL. In addition, the “HIV protease inhibitory activity (%)” value in series [2] (concentration 50 nM (final)) was determined as 17.6%; in series [2] (concentration 5 μM (final)), 94.2%.
Take `CCc1c(O)cccc1C(=O)N[C@@H](Cc1ccccc1)[C@H](O)C(=O)N1CSC[C@H]1C(=O)NCc1ccccc1C` [Compound of example 35, (R)-N-(2-methylbenzyl)-3-[(2S,3S)-3-(2-ethyl-3-hydroxybenzoyl)amino-2-hydroxy-4-phenylbutanoyl]-1,3-thiazolidine-4-carboxamide]: the “Cytotoxicity CC50” value in series [3] worked out at 90.9 µg/mL. This compound registered an EC50 in series [4] (Human immunodeficiency virus 1, MT4, 120 h) of 4.15 µg/mL (≈ 7.39 µM). Moreover, the inhibition at 0.05 µM in series [2] (concentration 50 nM (final)) amounted to 48.8%. In addition, the inhibition at 5 µM in series [2] worked out at 98.1%.
`CC(C)(C)NC(=O)[C@@H]1CSCN1C(=O)[C@@H](O)[C@H](Cc1ccccc1)NC(=O)c1ccccc1` [Compound of example 1, (R)-N-tert-butyl-3-[(2S,3S)-2-hydroxy-3-[benzoyl]amino-4-phenylbutanoyl]-1,3-thiazolidine-4-carboxamide]: the inhibition at 5 µM in series [2] worked out at 52%.
The same measure, in the same setting: as for `Cc1c(N)cccc1C(=O)N[C@@H](Cc1ccccc1)[C@H](O)C(=O)N1CSC[C@H]1C(=O)NC(C)(C)C` [Compound of example 25, (R)-N-tert-butyl-3-[(2S,3S)-2-hydroxy-3-[3-amino-2-methylbenzoyl]amino-4-phenylbutanoyl]-1,3-thiazolidine-4-carboxamide], the figure is 81.3%.
Take `Cc1ccccc1CNC(=O)[C@H]1NC[C@@H](Cl)C1C(=O)[C@@H](O)[C@H](Cc1ccccc1)NC(=O)c1cccc(O)c1C` (stereo partly drawn) [Compound of example 41, (2S,4S)-N-(2-methylbenzyl)-3-[(2S,3S)-3-(3-hydroxy-2-methylbenzoyl)amino-2-hydroxy-4-phenylbutanoyl]-4-chloropyrrolidine-2-carboxamide]: the inhibition at 0.05 µM in series [2] (concentration 50 nM (final)) is 76.8%. Further, in series [2], the inhibition at 5 µM was 97.7%.
With `Cc1c(O)cccc1C(=O)N[C@@H](Cc1ccccc1)[C@H](O)C(=O)N1CSC(C)(C)[C@H]1C(=O)NCc1ccccc1Cl` [Compound of example 45, (R)-N-(2-chlorobenzyl)-3-[(2S,3S)-3-(3-hydroxy-2-methylbenzoyl)amino-2-hydroxy-4-phenylbutanoyl]-5,5-dimethylthiazolidine-4-carboxamide], the inhibition at 0.05 µM in series [2] (concentration 50 nM (final)) worked out at 94.5%. In series [2], the inhibition at 5 µM was over 99%.
As to `Cc1ccccc1C(=O)N[C@@H](Cc1ccccc1)[C@H](O)C(=O)N1CSC[C@H]1C(=O)NC(C)(C)C` [Compound of example 2, (R)-N-tert-butyl-3-[(2S,3S)-2-hydroxy-3-[2-methylbenzoyl]amino-4-phenylbutanoyl]-1,3-thiazolidine-4-carboxamide], the inhibition at 5 µM in series [2] came out at 74.9%.
On the same count and under the same terms, the figure for `CC(C)(C)NC(=O)[C@@H]1CSCN1C(=O)[C@@H](O)[C@H](Cc1ccccc1)NC(=O)c1cc(O)cc(O)c1` [Compound of example 29, (R)-N-tert-butyl-3-[(2S,3S)-2-hydroxy-3-(3,5-dihydroxybenzoyl)amino-4-phenylbutanoyl]-1,3-thiazolidine-4-carboxamide] is 75.6%; for `Cc1c(N)cc(N)cc1C(=O)N[C@@H](Cc1ccccc1)[C@H](O)C(=O)N1CSC[C@H]1C(=O)NC(C)(C)C` [Compound of example 33, (R)-N-tert-butyl-3-[(2S,3S)-2-hydroxy-3-(3,5-diamino-2-methylbenzoyl)amino-4-phenylbutanoyl]-1,3-thiazolidine-4-carboxamide] it is 85.2%.
Turning to `CCCCNC(=O)[C@@H]1CSCN1C(=O)[C@@H](O)[C@H](Cc1ccccc1)NC(=O)c1cccc(O)c1C` [Compound of example 39, (R)-N-n-butyl-3-[(2S,3S)-3-(3-hydroxy-2-methylbenzoyl)amino-2-hydroxy-4-phenylbutanoyl]-1,3-thiazolidine-4-carboxamide], the inhibition at 0.05 µM in series [2] (concentration 50 nM (final)) was 13.4%. Moreover, the inhibition at 5 µM in series [2] worked out at 92%.

As usually defined, the EC50 is the concentration giving half of the maximal effect. Low readings indicate higher potency in that assay, high ones lower potency in that assay.

The record behind these values is patent US5962640A, “Methods for preparing novel dipeptide compounds or pharmacuetically acceptable salts thereof” (Japan Energy Corporation, priority 1995, dated 1999).
